Consider 1 compound from patent publication US7396525B2, “Care/makeup compositions comprising a 2-alkylideneaminooxyacetamide compound for stimulating the growth of the hair or eyelashes and/or slowing loss thereof” (L'Oreal, priority 2003, dated 2008).

In the assay the target is T1, PGF synthase (PGFS) (Homo sapiens, UniProt P42330).
T1 construct: made in house
T1 sequence (P42330 1-323): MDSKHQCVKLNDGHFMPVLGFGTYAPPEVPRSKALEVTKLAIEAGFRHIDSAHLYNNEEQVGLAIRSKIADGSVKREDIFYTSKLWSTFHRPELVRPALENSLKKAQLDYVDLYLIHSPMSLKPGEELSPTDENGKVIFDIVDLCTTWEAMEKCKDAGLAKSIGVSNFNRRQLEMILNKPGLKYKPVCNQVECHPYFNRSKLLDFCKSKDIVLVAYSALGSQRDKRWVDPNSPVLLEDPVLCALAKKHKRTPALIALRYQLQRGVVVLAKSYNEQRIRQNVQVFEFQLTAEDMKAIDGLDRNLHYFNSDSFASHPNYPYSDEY
Nature of the assay: Test on PGF synthase (spectrophotometric, 340 nm, 9,10-phenanthrenequinone/β-NADPH). In kind it is biochemical. As to the method: The enzyme PGFS is obtained as disclosed in FR-A-02/05067, at a concentration of 0.5 mg/ml, in suspension in an appropriate medium, and is blocked at −80° C. For the requirements of the test, this suspension is defrosted and stored in ice.
Furthermore, a Tris 100 mM, pH=6.5, buffer comprising 20 μM of 9,10-phenanthrenequinone*(P2896, Sigma-Aldrich, L'isle D'Abeau Chesne, BP 701, 38297, Saint Quentin Fallavier) and 100 μM of β-NADPH (N1630, Sigma-Aldrich, L'isle D'Abeau Chesne, BP 701, 38297, Saint Quentin Fallavier) is prepared in a brown bottle (exclusion of light). *A mother solution assaying 1 mM is prepared in absolute ethanol and is brought to 40° C.; the bottle is placed in an ultrasonic bath to facilitate the dissolution of the product.
0.950 ml of this buffer (brought beforehand to 37° C.) is introduced into the cell of a spectrophotometer (Perkin-Elmer, Lambda 2) thermostatically controlled at 37° C., the wavelength of which for the measurement is adjusted to 340 nm. 0.05 ml of enzymatic suspension at 37° C. is introduced into the cell concomitantly with the recording (corresponding to a fall in optical density at 340 nm). The maximum rate of reaction is noted.

As a reminder, the IC50 is the concentration that inhibits the measured activity by half. Read a high IC50 as lower potency.

For the compound `C/C(=N/OCC(=O)Nc1ccccc1)c1cccs1` [Compound 1, N-Phenyl-2({[(1Z)-1-(thien-2-yl)-ethylidene]amino}oxy)acetamide], the IC50 was in the range of 50 to 100 µM.
